Tests used:
[1] = target: T1, Muscarinic acetylcholine receptor M1 (Homo sapiens, UniProt P11229); format: functional
T1 sequence (P11229 whole entry): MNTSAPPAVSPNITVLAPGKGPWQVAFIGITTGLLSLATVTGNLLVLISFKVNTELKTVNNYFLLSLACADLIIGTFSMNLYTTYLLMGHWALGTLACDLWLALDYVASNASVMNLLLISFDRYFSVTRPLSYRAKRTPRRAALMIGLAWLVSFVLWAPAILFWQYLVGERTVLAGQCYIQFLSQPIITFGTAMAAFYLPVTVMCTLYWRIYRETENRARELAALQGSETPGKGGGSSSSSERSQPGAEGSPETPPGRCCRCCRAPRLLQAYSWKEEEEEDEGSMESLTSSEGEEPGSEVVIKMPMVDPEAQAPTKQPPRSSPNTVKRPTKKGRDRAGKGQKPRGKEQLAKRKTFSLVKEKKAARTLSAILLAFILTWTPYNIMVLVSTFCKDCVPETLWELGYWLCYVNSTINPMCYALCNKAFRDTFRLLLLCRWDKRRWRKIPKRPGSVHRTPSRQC

[2] = target: T2, Alpha-2A adrenergic receptor (Homo sapiens, UniProt P08913); format: functional, cell-based
T2 sequence (P08913 whole entry): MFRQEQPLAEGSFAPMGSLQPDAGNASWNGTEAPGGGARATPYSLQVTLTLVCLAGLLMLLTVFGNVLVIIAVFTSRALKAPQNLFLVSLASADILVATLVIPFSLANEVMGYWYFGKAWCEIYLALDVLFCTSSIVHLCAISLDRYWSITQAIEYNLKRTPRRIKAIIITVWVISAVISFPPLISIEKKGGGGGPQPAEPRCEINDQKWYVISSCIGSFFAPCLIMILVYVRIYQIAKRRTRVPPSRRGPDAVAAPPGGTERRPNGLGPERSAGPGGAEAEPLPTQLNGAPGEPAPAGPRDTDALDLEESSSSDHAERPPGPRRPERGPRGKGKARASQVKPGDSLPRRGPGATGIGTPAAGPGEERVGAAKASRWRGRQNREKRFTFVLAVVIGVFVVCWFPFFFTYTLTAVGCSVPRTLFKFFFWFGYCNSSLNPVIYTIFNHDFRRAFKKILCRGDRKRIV

[3] = target: T3, Progesterone receptor (Homo sapiens, UniProt P06401); format: functional
T3 sequence (P06401 whole entry): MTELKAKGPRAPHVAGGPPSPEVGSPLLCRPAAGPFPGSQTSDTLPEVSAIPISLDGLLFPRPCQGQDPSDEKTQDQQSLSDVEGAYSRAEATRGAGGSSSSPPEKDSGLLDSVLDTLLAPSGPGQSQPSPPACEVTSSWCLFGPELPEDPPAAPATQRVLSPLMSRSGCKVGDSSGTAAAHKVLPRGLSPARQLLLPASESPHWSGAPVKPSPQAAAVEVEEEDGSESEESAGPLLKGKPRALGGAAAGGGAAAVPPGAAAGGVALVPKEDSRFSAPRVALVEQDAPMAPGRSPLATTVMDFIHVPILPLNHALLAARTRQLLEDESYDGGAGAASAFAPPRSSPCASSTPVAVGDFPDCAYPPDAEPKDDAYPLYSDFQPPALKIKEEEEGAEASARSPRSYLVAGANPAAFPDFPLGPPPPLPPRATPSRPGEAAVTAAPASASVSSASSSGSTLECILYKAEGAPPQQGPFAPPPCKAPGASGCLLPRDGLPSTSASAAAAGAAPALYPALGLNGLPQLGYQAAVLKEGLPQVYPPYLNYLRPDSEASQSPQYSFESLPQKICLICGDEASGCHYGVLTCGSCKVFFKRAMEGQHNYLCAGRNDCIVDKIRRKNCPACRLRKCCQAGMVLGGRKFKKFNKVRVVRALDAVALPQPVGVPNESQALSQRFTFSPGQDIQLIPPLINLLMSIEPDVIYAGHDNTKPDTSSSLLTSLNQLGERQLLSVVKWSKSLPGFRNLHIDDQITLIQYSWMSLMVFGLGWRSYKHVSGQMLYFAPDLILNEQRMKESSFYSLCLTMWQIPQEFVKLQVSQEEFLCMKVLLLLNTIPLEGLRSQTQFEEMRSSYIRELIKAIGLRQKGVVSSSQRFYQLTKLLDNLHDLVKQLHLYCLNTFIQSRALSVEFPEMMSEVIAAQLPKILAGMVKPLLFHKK

[4] = target: T4, Alpha-1A adrenergic receptor (Homo sapiens, UniProt P35348); format: functional, cell-based
T4 sequence (P35348 whole entry): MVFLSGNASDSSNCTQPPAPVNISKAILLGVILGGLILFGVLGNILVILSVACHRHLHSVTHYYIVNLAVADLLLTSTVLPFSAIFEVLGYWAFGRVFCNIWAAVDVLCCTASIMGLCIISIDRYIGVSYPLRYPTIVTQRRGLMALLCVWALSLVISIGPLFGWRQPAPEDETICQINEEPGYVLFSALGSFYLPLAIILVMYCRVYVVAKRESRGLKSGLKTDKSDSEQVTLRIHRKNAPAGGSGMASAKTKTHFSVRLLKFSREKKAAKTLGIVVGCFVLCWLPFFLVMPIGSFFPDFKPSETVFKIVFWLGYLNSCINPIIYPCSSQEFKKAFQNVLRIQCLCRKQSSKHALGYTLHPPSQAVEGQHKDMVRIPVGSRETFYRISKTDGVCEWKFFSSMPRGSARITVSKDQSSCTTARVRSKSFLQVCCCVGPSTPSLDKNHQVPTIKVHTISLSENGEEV

[5] = target: Mu-type opioid receptor (Homo sapiens, UniProt P35372); assay: biochemical; format: functional
Sequence of Mu-type opioid receptor (P35372 whole entry): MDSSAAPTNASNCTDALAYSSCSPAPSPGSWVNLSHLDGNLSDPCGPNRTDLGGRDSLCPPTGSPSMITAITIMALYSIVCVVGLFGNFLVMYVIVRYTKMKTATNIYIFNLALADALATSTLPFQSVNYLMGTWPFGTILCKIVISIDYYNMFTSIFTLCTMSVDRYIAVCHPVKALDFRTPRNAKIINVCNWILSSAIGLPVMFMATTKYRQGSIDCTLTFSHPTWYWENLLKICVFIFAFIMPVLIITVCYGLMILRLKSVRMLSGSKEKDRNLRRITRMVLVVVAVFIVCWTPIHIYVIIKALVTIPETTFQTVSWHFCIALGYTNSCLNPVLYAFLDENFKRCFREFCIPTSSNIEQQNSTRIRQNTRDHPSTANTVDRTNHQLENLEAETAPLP

[6] = target: Prothrombin (Homo sapiens, UniProt P00734); format: functional
[7] = target: T2, Alpha-2A adrenergic receptor
Note: assay procedure not described here.

Row | SMILES | AC50 [1] | AC50 [2] | AC50 [3] | AC50 [4] | AC50 [5] | AC50 [6] | AC50 [7]
1 | C[C@]12CC[C@@H]3c4ccc(O)cc4C[C@@H](CCCCCCCCC[S+]([O-])CCCC(F)(F)C(F)(F)F)[C@H]3[C@@H]1CC[C@@H]2O (some centres not stated) [FULVESTRANT] | > 30 µM | > 30 µM | 3.6 µM | > 30 µM | > 30 µM |  | 
2 | C=CCNc1nc(NCC=C)nc(N2CCN(C(c3ccc(F)cc3)c3ccc(F)cc3)CC2)n1 [ALMITRINE] | > 30 µM | > 30 µM | > 30 µM |  | > 30 µM |  | 
3 | CC(CCc1ccc(O)cc1)NCCc1ccc(O)c(O)c1 (configuration not stated) [DOBUTAMINE] |  | > 30 µM | > 30 µM | 0.0054 µM | > 30 µM |  | 
4 | CCC(C)C(CC)C(N)=O (configuration not stated) [VALNOCTAMIDE] | > 30 µM | > 30 µM | > 30 µM | > 30 µM | > 30 µM |  | 
5 | CCOC(=O)C1=C[C@]2(CC)CCCN3CCc4c(n1c1ccccc41)[C@@H]32 [VINPOCETINE] | > 30 µM | 19 µM | > 30 µM | > 30 µM | > 30 µM |  | 
6 | CN1CCN(C2=Nc3ccccc3Oc3ccc(Cl)cc32)CC1 [LOXAPINE] | 0.794 µM |  |  | > 30 µM | > 30 µM | > 30 µM | 
7 | CC1(C)S[C@@H]2[C@H](NC(=O)[C@H](N)c3ccccc3)C(=O)N2[C@H]1C(=O)OCOC(=O)[C@@H]1N2C(=O)C[C@H]2S(=O)(=O)C1(C)C [SULTAMICILLIN] | > 30 µM | > 30 µM | > 30 µM | > 30 µM | > 30 µM |  | 
8 | Cc1cccc(N2CC(CO)OC2=O)c1 (configuration not stated) [TOLOXATONE] | > 30 µM | > 30 µM | > 30 µM | > 30 µM | > 30 µM |  | 
9 | CCC(=O)O[C@]1(C(=O)SCF)[C@H](C)C[C@H]2[C@@H]3C[C@H](F)C4=CC(=O)C=C[C@]4(C)[C@@]3(F)[C@@H](O)C[C@@]21C [FLUTICASONE PROPIONATE] | > 30 µM | > 30 µM |  | > 30 µM | > 30 µM | > 30 µM | > 30 µM
10 | Oc1ccc2c(c1)CC[C@H](c1ccccc1)[C@@H]2c1ccc(OCCN2CCCC2)cc1 [LASOFOXIFENE] | 11 µM |  | > 10 µM |  | > 30 µM |  | 
11 | CC(C(=O)O)c1ccc(-c2ccccc2)c(F)c1 (configuration not stated) [FLURBIPROFEN] |  | > 10 µM |  |  | > 30 µM | > 30 µM | > 30 µM
12 | CC[C@@H]([C@H](C)O)n1ncn(-c2ccc(N3CCN(c4ccc(OC[C@@H]5CO[C@@](Cn6cncn6)(c6ccc(F)cc6F)C5)cc4)CC3)cc2)c1=O [POSACONAZOLE] | > 30 µM |  | > 30 µM |  |  | > 30 µM | > 30 µM
13 | CC(C)[C@H](N)C(=O)OCC(CO)OCn1cnc2c(=O)nc(N)[nH]c21 (some centres not stated) [VALGANCICLOVIR] | > 30 µM | > 30 µM | > 30 µM |  | > 30 µM |  | 
14 | COc1cc(N)c(Cl)cc1C(=O)NC1CCN(Cc2ccccc2)CC1 [CLEBOPRIDE] | > 30 µM | 14 µM | > 30 µM | > 30 µM | > 30 µM |  | 
15 | CC1OC2(CS1)CN1CCC2CC1 (configuration not stated) [CEVIMELINE] | > 30 µM | > 10 µM | > 10 µM | > 30 µM | > 30 µM |  | 
16 | C#C[C@]1(OC(C)=O)CC[C@H]2[C@@H]3CCC4=C/C(=N/O)CC[C@@H]4[C@H]3CC[C@@]21CC [NORGESTIMATE] | > 30 µM | > 30 µM |  | > 30 µM | > 30 µM |  | 

Row | SMILES | AC50 [1] | AC50 [2] | AC50 [3] | AC50 [4] | AC50 [5] | AC50 [6] | AC50 [7]
17 | Cc1noc(NS(=O)(=O)c2ccc(N)cc2)c1C [SULFISOXAZOLE] |  | > 10 µM | > 10 µM | > 30 µM |  |  | 
18 | CCCN[C@H]1CCc2nc(N)sc2C1 [PRAMIPEXOLE] | > 10 µM |  | > 30 µM | > 30 µM |  |  | 
19 | COCC1=C(C(=O)O)N2C(=O)[C@@H](NC(=O)/C(=N\OC)c3csc(N)n3)[C@H]2SC1 [CEFPODOXIME] | > 30 µM | > 30 µM | > 30 µM | > 30 µM | > 30 µM |  | 
20 | Clc1ccc(C(Cn2ccnc2)OCc2ccsc2Cl)c(Cl)c1 (configuration not stated) [TIOCONAZOLE] | > 30 µM | > 30 µM | 10.3 µM | > 30 µM | > 30 µM |  | 
21 | OC1(c2ccc(Cl)cc2)c2ccccc2C2=NCCN21 (configuration not stated) [MAZINDOL] | > 30 µM | > 30 µM | > 30 µM | > 30 µM | 16 µM |  | 
22 | Clc1ccc2c(N3CCN(CCCN4CCN(c5ccnc6cc(Cl)ccc56)CC4)CC3)ccnc2c1 [PIPERAQUINE] | 3.8 µM | > 30 µM | > 30 µM | > 30 µM | > 30 µM |  | 
23 | CC(=O)N[C@@H](CS)C(=O)O [ACETYLCYSTEINE] | > 30 µM | > 30 µM | > 30 µM | > 30 µM | > 30 µM |  | 
24 | C[C@]12CCC(=O)C(O)=C1CC[C@@H]1[C@@H]2CC[C@]2(C)C(=O)CC[C@@H]12 [FORMESTANE] | > 30 µM | > 30 µM |  | > 30 µM | > 30 µM |  | 
25 | CCC1(c2ccccc2)CCC(=O)NC1=O (configuration not stated) [GLUTETHIMIDE] | > 10 µM | > 10 µM | > 10 µM | > 30 µM |  |  | 
26 | Cc1cc2cc3c(C)cc(=O)oc3c(C)c2o1 [TRIOXSALEN] |  | > 10 µM | > 30 µM |  | > 30 µM |  | 
27 | CC(C)COCC(CN(Cc1ccccc1)c1ccccc1)N1CCCC1 (configuration not stated) [BEPRIDIL] | 23 µM | > 30 µM | > 30 µM |  | 17 µM |  | 
28 | Cc1cc(C(C)(C)C)cc(C)c1CC1=NCCN1 [XYLOMETAZOLINE] | 14.4 µM | 0.0616 µM | > 30 µM | 0.0023 µM | > 30 µM |  | 
29 | CC(C(=O)O)c1ccc(CC2CCCC2=O)cc1 (configuration not stated) [LOXOPROFEN] |  | > 30 µM |  | > 30 µM | > 30 µM |  | 
30 | [H]/N=C(/N)N/C(=N/[H])NCCc1ccccc1 [PHENFORMIN] | > 30 µM | > 10 µM |  |  | > 30 µM |  | 
31 | CCOC(=O)c1cncn1[C@H](C)c1ccccc1 [ETOMIDATE] | > 10 µM | > 10 µM | > 10 µM | > 30 µM |  |  | 
32 | Nc1ncn([C@H]2C[C@H](O)[C@@H](CO)O2)c(=O)n1 [DECITABINE] | > 30 µM | > 30 µM | > 30 µM |  | > 30 µM |  | 

Source: ChEMBL document CHEMBL5291721, “A preclinical secondary pharmacology resource illuminates target-adverse drug reaction associations of marketed drugs” (Nat Commun, 2023)
